Experimental data reported in patent publication US7049455B2, “Process for producing shogaols and intermediates for the synthesis thereof” (Toagosei Co., Ltd., priority 2002, dated 2006).
Entries after “also recorded” stand apart in the source; their conditions may differ.

System: mushroom-derived tyrosinase
Test: inhibition of the activity of mushroom-derived tyrosinase, L-dopa as substrate
Type: biochemical
Settings: L-dopa as a substrate, compared with arbutin (Tokyo Kasei Kogyo)
Text: A test of [6]-shogaol obtained in Example 5 about the inhibition of the activity of mushroom-derived tyrosinase was done, using L-dopa as a substrate.

**Q.** `CCCCC/C=C/C(=O)CCc1ccc(O)c(OC)c1` [[6]-shogaol] was tested. Which “inhibition of tyrosinase activity” value did it give?
**A.** Its value is “inhibited tyrosinase activity; also recorded: inhibitory activity at the same level as that of arbutin”.
